Results: ChEMBL document CHEMBL3886495, “Aminoheteroaryl benzamides as kinase inhibitors” (2016)
pIC50: −log10 of the molar value.

Legend:
[1] = molecular target: T1, Mitogen-activated protein kinase 1 (Homo sapiens, UniProt P28482); experiment: The assay was carried out in 20 mM HEPES [pH 7.5], 5 mM MgCl2, 1 mM DTT, 0.01% Tween-20, 0.05% BSA using 0.02 nM ERK2, 400 nM ERKtide peptide and 35 uM ATP (all concentrations are final in the reaction) in a total volume of 10.25 uL. A 16-point, half-log dilution series of compounds at 41x final concentration was used for generating IC50 curves. Compound dilution series were prepared in 100% DMSO. ERK2 was preincubated with compounds for 30 minutes at ambient temperature. Reaction was initiated by addition of a substrate cocktail of ERKtide peptide and ATP and was allowed to proceed for 4 hours at ambient temperature. Reaction was terminated by addition of 10 uL of a 2x stop buffer consisting of 100 mM Tris-Cl [pH 7.5], 25 mM EDTA, 0.01% Tween 20, 20 ug/mL of AlphaScreen Protein A Acceptor Beads, 20 ug/mL of Streptavidin Donor Beads (PerkinElmer, Waltham, Mass.), and 1:1000 dilution phospho-EGF Receptor (Thr669) antibody (Cat #8808, Cell Signaling Technology, Danvers, Mass.). Terminated reactions were read, after overnight incubation in the dark, on an EnVision Multilabel Plate Reader (PerkinElmer, Waltham, Mass.), with excitation and emission wavelengths set to 680 nm and 570 nm, respectively. IC50 values were determined using a four-parameter fit.
[2] = molecular target: T1, Mitogen-activated protein kinase 1; experiment: (§1) Kinase Assay (New): Compound potency against activated ERK2 is determined using a kinase assay that measures ERK2-catalyzed phosphorylation of biotinylated ERKtide peptide substrate ([Biotin]-AHA-KRELVEPLTPSGEAPNQALLR-[NH2], the peptide sequence derived from EGF receptor: SEQ ID NO:1). The assay is carried out in 50 mM HEPES [pH 7.5], 5 mM MgCl2, 1 mM DTT, 0.01% Tween-20, 0.05% BSA using 0.25 nM ERK2, 200 nM ERKtide peptide and 35 uM ATP (all concentrations are final in the reaction) in a total volume of 10.25 uL. A 16-point, half-log dilution series of compounds at 41x final concentration is used for generating IC50 curves. Compound dilution series are prepared in 100% DMSO. ERK2 is preincubated with compounds for 30 minutes at ambient temperature. Reaction is initiated by addition of a substrate cocktail of ERKtide peptide and ATP and is allowed to proceed for 2-3 hours at ambient temperature. Reaction is terminated by addition of 10 uL of a 2x stop buffer consisting of 100 mM Tris-Cl [pH 7.5], 25 mM EDTA, 0.01% Tween 20, 10 ug/mL of AlphaScreen Protein A Acceptor Beads, 10 ug/mL of Streptavidin Donor Beads (PerkinElmer, Waltham, Mass.), and 1.4 ug/mL phospho-EGF Receptor (Thr669) antibody (Cat #3056, Cell Signaling Technology, Danvers, Mass.). Terminated reactions are read, after overnight incubation in the dark, on an EnVision Multilabel Plate Reader (PerkinElmer, Waltham, Mass.), with excitation and emission wavelengths set to 680 nm and 570 nm, respectively. IC50 values are determined using a four-parameter fit.
[3] = molecular target: T1, Mitogen-activated protein kinase 1; experiment: as §1, with “AlphaScreen Assay:” for “Kinase Assay (New):”, “Mass.).” for “Mass.). Terminated reactions are read, after overnight incubation in the dark, on an EnVision Multilabel Plate Reader (PerkinElmer, Waltham, Mass.), with excitation and emission wavelengths set to 680 nm and 570 nm, respectively. IC50 values are determined using a four-parameter fit.”

T1 sequence (P28482 whole entry): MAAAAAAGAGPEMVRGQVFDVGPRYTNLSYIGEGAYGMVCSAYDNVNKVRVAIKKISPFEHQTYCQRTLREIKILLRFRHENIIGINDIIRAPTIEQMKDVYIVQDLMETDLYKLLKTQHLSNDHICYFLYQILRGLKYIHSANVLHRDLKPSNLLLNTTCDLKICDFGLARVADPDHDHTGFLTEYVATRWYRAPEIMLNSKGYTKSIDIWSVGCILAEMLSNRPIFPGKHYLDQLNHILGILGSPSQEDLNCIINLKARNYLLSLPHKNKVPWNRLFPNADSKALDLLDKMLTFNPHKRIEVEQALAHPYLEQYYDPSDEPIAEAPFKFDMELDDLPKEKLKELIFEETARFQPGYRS

Row | SMILES | pIC50 [1] | pIC50 [2] | pIC50 [3]
1 | Nc1ncc([C@H]2CC[C@H](O)CC2)nc1-c1ccc(C(=O)NCc2cccc(Cl)n2)c(F)c1 | 7.68 | – | –
2 | CS(=O)(=O)[C@H]1CC[C@H](c2cnc(N)c(-c3ccc(C(=O)NCc4ccccc4)c(F)c3)n2)CC1 | 7.53 | 7.19 | –
3 | Cc1nn(C(F)F)cc1-c1cnc(N)c(-c2ccc(C(=O)N[C@H](CO)c3cccc(Cl)c3)c(F)c2)c1 | 10.61 | – | –
4 | Nc1ncc([C@H]2CC[C@@H](O)CC2)nc1-c1ccc(C(=O)NCc2cccc(Cl)n2)c(F)c1 | 6.80 | – | –
5 | Cc1nn(C)cc1-c1cnc(N)c(-c2ccc(C(=O)N[C@H](CO)c3ccccc3)c(F)c2)c1 | – | 8.85 | –

Results, then the molecule that gave them:

Row | pIC50 [1] | pIC50 [2] | pIC50 [3] | SMILES
6 | – | 8.69 | – | CC(C)n1cc(-c2cnc(N)c(-c3ccc(C(=O)N[C@H](CO)c4ccccc4)c(F)c3)c2)cn1
7 | 10.03 | – | – | Cn1ccc(-c2cnc(N)c(-c3ccc(C(=O)N[C@H](CO)c4cccc(Cl)c4)c(F)c3)c2)n1
8 | 8.88 | – | 7.69 | Nc1ncc(N2CCOCC2)cc1-c1ccc(C(=O)N[C@H](CO)c2ccccc2)c(F)c1
9 | – | 8.01 | – | Cn1cc(-c2cnc(N)c(-c3ccc(C(=O)N[C@H](CO)c4ccccc4)c(F)c3)c2F)cn1
10 | – | 7.58 | – | Nc1ncc(C2CCOCC2)nc1-c1ccc(C(=O)N[C@H](CO)C2CCCCC2)c(F)c1
11 | 8.52 | – | 8.28 | Nc1cc(-c2cc(C3CCOCC3)cnc2N)ccc1C(=O)N[C@H](CO)c1ccccc1
